# Tests used:
# Thromboxane A2 receptor = molecular target: T1, Thromboxane A2 receptor (Homo sapiens, UniProt P21731); assay: FLIPR Assay: Calciium Signal Studies of the Flipr. Cells were seeded at a density of 5×10^4 cells per well in Biocoati® Poly-D-lysine-coated black-wall, clear-bottom 96-well plates (Becton-Dickinson) and allowed to attach overnight in an incubator at 37° C. Cells were then washed two times with HBSS-HEPES buffer (Hanks Balanced Salt Solution without bicarbonate and phenol red, 20 mM HEPES, pH 7.4) using a Denley Cellwash plate washer (Labsystems). After 45 minutes of dye-loading in the dark, using the calcium-sensitive dye Fluo-4 AM at a final concentration of 2 μM, plates were washed four times with HBSS-HEPES buffer to remove excess dye leaving 100 μl in each well. Plates were re-equilibrated to 37° C. for a few minutes. Cells were excited with an Argon laser at 488 nm, and emission was measured through a 510-570 nm bandwidth emission filter (FLIPR, Molecular Devices, Sunnyvale, Calif.). Drug solution was added in a 50 μl volume to each well to give the desired final concentration.; type: functional
# T1 sequence (P21731 whole entry): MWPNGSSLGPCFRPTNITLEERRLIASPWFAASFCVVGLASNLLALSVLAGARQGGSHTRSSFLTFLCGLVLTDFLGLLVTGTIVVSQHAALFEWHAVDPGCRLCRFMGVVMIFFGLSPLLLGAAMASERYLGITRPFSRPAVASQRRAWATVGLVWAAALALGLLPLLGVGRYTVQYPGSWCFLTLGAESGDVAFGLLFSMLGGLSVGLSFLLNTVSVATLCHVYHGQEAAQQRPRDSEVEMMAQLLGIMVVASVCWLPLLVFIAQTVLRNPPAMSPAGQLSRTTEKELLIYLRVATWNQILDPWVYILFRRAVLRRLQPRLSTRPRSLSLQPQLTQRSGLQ
# [1] = molecular target: T2, Prostaglandin E2 receptor EP2 subtype (Homo sapiens, UniProt P43116); assay: cAMP Assay: A 384-well drug plate was prepared to contain test compounds, PGE2 and cAMP in 16 serial dilutions in triplicate, using a Biomek station. HEK-EBNA cells expressing a target PG receptor subtype (EP2 or EP4) were suspended in a stimulation buffer (HBSS, 0.1% BSA, 0.5 mM IBMX and 5 mM HEPES, pH 7.4) in a density of 10^4 cells/5 μl. The reaction was initiated by mixing 5 μL drug dilutions with 5 μl of HEK-EBNA cells in a well, carried out for 30 min at room temperature, and followed by the addition of 5 μl anti-cAMP acceptor beads in the control buffer with Tween-20 (25 mM NaCl, 0.03% Tween-20, 5 mM HEPES, pH7.4). After 30 min in the dark at room temperature, the mixtures were incubated with 15 μl biotinylated-cAMP/strpavidin donor beads in Lysis/Detection buffer (0.1% BSA, 0.3% Tween-20 and 5 mM HEPES, pH7.4) for 45 min at the room temperature. Fluorescence changes were read using a Fusion-alpha HT microplate reader.; type: functional, cell-based, 104
# [2] = molecular target: T2, Prostaglandin E2 receptor EP2 subtype; assay: Radioligand Binding Assay: The cell homogenate was centrifuged at 19000 r.p.m. for 20 min at 4° C. using a Beckman Ti-60 rotor. The resultant pellet was resuspended in TME buffer to give a final 1 mg/ml protein concentration, as determined by Biorad assay. Radioligand binding competition assays vs. [3H-]17-phenyl PGF2a , (5 nM) were performed in a 100 μl volume for 60 min. Binding reactions were started by adding plasma membrane fraction. The reaction was terminated by the addition of 4 ml ice-cold TRIS-HCl buffer and rapid filtration through glass fiber GF/B filters using a Brandel cell harvester. The filters were washed 3 times with ice-cold buffer and oven dried for one hour. [3H-] PGE2 (specific activity 180 Ci mmol) was used as the radioligand for EP receptors. [3H] 17-phenyl PGF2a, was employed for FP receptor binding studies. Binding studies employing EP1, EP2, EP4 and FP receptors were performed in duplicate in at least three separate experiments. A 200 μl assay volume was used. Incubations w; type: cell-free
# T2 sequence (P43116 whole entry): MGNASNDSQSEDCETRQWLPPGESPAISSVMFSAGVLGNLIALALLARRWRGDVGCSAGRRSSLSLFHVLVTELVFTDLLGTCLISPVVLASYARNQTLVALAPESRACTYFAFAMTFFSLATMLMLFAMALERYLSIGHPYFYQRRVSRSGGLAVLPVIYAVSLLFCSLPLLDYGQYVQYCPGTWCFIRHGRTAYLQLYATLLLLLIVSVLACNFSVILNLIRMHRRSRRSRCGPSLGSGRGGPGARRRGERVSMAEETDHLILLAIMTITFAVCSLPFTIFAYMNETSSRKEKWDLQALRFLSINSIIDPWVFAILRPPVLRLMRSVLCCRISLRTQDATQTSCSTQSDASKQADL
smiles,measurement,setting,value
"O=C(O)c1ccc(CC[C@H]2C(=O)CC[C@@H]2/C=C/C(O)Cc2cccc(Br)c2)cc1 (single isomer, unassigned)",EC50,Thromboxane A2 receptor,100 nM
same,EC50,[1],8 nM
same,Ki,[2],1170 nM

# From ChEMBL document CHEMBL3886833, “Therapeutic prostaglandin receptor agonists” (2016)
